Reference: PubChem BioAssay (NCI)
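Dose response: 5 concentrations. Exposure: 48 h. Format: 96-well plates. Endpoint: linear interpolation; highest concentration if not reached. Abbreviation: GI50, concentration required for 50% inhibition of growth. TGI: total growth inhibition.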

What was measured:
Experiment in all cases: NCI anticancer screen, dose series, 48 h
[1] = tested on: A498 renal
[2] = tested on: UO-31 renal
[3] = tested on: HCT-116 colon
[4] = tested on: SNB-75 CNS
[5] = tested on: SNB-19 CNS
[6] = tested on: OVCAR-4 ovarian
[7] = tested on: HL-60(TB) leukemia
[8] = tested on: NCI-H226 lung
[9] = tested on: SK-MEL-28 melanoma
[10] = tested on: SR leukemia

SMILES	TGI [1] [µM]	TGI [2] [µM]	TGI [3] [µM]	TGI [4] [µM]	TGI [5] [µM]	TGI [6] [µM]	TGI [7] [µM]	TGI [8] [µM]	TGI [9] [µM]	GI50 [2] [µM]	GI50 [3] [µM]	GI50 [4] [µM]	GI50 [5] [µM]	GI50 [10] [µM]	TGI [10] [µM]	GI50 [7] [µM]	GI50 [8] [µM]	GI50 [9] [µM]	GI50 [1] [µM]	GI50 [6] [µM]
COC(=O)C(C(=O)C(=O)Nc1cccc(O)c1)c1nc2ccc(Cl)cc2[nH]c1=O (stereo not drawn)	> 100	> 100	> 100	> 100	> 100	> 100	> 100	> 100	> 100											
COC(=O)CCC(NC(=S)N/N=C(\C)c1ccccn1)C(=O)OC (stereo not drawn)	> 100	> 100	> 100	> 100	> 100	> 100	53.1	> 100	> 100											
CC(=O)OC1(C#N)CC2OC1C1C2N1C(=O)c1ccccc1 (stereo not drawn)	> 100	> 100	> 100	> 100	> 100	> 100	> 100	> 100	> 100											
Cc1ccc2nc3c(Cl)cc(=O)cc-3sc2c1		> 100	32.2	57.7		30.7	20.5	79.1	81.4											
C/C(CN1C(=O)c2ccccc2C1=O)=N\NS(=O)(=O)c1ccccc1	> 100	> 100	> 100	> 100	> 100	> 100	> 100	> 100	> 100											
NC(=S)N/N=C(/CC(=O)c1ccc([N+](=O)[O-])cc1)C(=O)Nc1ncc([N+](=O)[O-])s1		> 100	> 100	> 100	> 100	> 100	> 100	> 100	> 100											
Nc1nnc2nc(CC(=O)/C=C/c3ccccc3)c(=O)[nH]n12	> 100	> 100	> 100	> 100	> 100	> 100	> 100	> 100	> 100											
CCOc1ccccc1NC(=O)C(=O)CC(=O)C1=C(C)Nc2ccccc2S1	> 100	> 100	> 100	> 100	> 100	> 100	> 36.2	> 100	> 100											
OC1CN(OC/C=C/c2ccccc2)CC(O)C1O (stereo not drawn)	> 100	> 100	> 100	> 100	> 100	> 100	> 100	> 100	> 100											
COc1ccc(Nc2c3ccccc3nc3c2c2ccccc2n3C)cc1		> 100	> 100	> 100	> 100		45.6	> 100	> 100	> 100	30	> 100	> 100	2.75	14	3.99	27.6	> 100		
Clc1ccc(-c2nc3c(-c4ccc(Cl)cc4)nc(-c4ccccc4)cn3c2-c2ccc(Cl)cc2)cc1	> 50	> 50	> 50	25.7	> 50	> 50	> 50	> 50	> 50	> 50	> 50	6.56	> 50			> 50	> 50	> 50	> 50	> 50
C=C1CC[C@@H]2C(C)(C)[C@@H](O)CC[C@@]2(C)[C@@H]1COc1ccc2ccc(=O)oc2c1		22.9	28	32.1	34.2	21.6	45.6		30.1	10.2	11.1	10.9	14.1	19.4	83.9			15.1		6.97
C/C(=N/O)C1CC=C(S(=O)(=O)c2ccccc2)C1 (stereo not drawn)		> 100		> 100	> 100	> 100	> 100	> 100	> 100						> 100					
Cc1ccc(-n2c3c(c4c(CN5CCCCC5)c(O)ccc42)CCc2ccccc2C3=O)cc1	> 100	> 100	> 100		> 100		> 100	> 100		> 100	43.4		> 100			0.477	> 100		> 100	
CC(=O)OC1C=CC2CCN3C(=O)c4cc5c(cc4[C@H]1C23)OCO5 (stereo partly drawn)		> 100	> 100	> 100	> 100		> 100	> 100	> 100						> 100					
COC(=O)/C(C#N)=C\N1CCN(C(=O)c2ccco2)C1=S		21.3	16	> 100	> 100	58.8	> 100		79.6	5.19	3.95	15.5	54.9			6.94		13		23.3

SMILES	TGI [1] [µM]	TGI [2] [µM]	TGI [3] [µM]	TGI [4] [µM]	TGI [5] [µM]	TGI [6] [µM]	TGI [7] [µM]	TGI [8] [µM]	TGI [9] [µM]	GI50 [2] [µM]	GI50 [3] [µM]	GI50 [4] [µM]	GI50 [5] [µM]	GI50 [10] [µM]	TGI [10] [µM]	GI50 [7] [µM]	GI50 [8] [µM]	GI50 [9] [µM]	GI50 [1] [µM]	GI50 [6] [µM]
O=C(CC(=O)N1N=C(n2ccc3ccccc32)CC1c1ccccc1)Nc1cccc(Cl)c1 (stereo not drawn)	> 100	> 100	> 100	> 100	> 100	> 100	> 100		> 100											
NC(=O)c1ccccc1NC(=O)C(=O)C(C(=O)c1ccc2ccccc2c1)C1OC(=O)c2ccccc21 (stereo not drawn)	> 100	29.4	23	45.2	20.7	32.9		9.88												
Cn1cc(-c2csc(-c3c[nH]c4ncccc34)n2)c2cc(Br)cnc21	> 100		> 100	7.35	> 100		> 100	> 100			2.91	2.18	6.74			> 100	1.97		10.9	
Cc1ccc(SSCCCS(=O)O)cc1	69.9	> 100	> 100	79.5	> 100	> 100	6.49		> 100											
C/C(=N\NC(=O)CC(=O)Nc1ccc(C)cc1)c1cc2ccccc2oc1=O		> 100	> 100	76.6	> 100		> 100	> 100	> 100											
COc1ccc(/C=C2/C(=O)N(C(=O)c3ccccc3O)N=C2C)cc1OC		> 100	> 100			> 100	> 33.6	40.5	> 100						> 100					
CCc1cccc(C(C)CC)c1N=C(NC(=O)c1ccccc1C(=O)NC(=Nc1c(CC)cccc1C(C)CC)SC)SC (stereo not drawn)		> 100	> 100		> 100	> 100	51.5	57.1	> 100						> 100					
N=C(N)n1ncc(Cl)c(Cl)c1=O	35.1	4.93	3.32	9.24	12.9	3.41		18.3	5.26											
O=C(c1cc(=O)c2ccc(O)cc2o1)c1ccc(Cl)cc1Cl	> 100	> 82.2	> 54.1	> 100	> 100	> 90.1	> 100	99.6	> 100											
O=C(NCCCN1CCN(CCCNC(=O)c2cnc3ccccc3n2)CC1)c1cnc2ccccc2n1	> 100	> 100	> 100	> 100	> 100	> 100	> 100	> 100	> 100											
CN(C)c1cccc(-c2cc(=O)c3ccccc3[nH]2)c1		> 100	> 100		> 100		74.6	66.9	> 100		58.6				> 100		29.4			
O=C(Oc1cccnc1)c1ccccc1Nc1ccnc(C(F)(F)F)c1	13.1	> 87.3		> 100	> 100	> 100	> 100	29.3	> 60.1	3.84	0.0342	> 63.4	0.54			43.3	0.552	0.483	2.48	0.207
CC(=O)CC(=O)CCCC(=O)Nc1ccc(Cl)cc1C	> 100	> 100	> 100		> 100	> 100	> 100	> 100												
CC1=C(C(=O)Nc2cccc(C(F)(F)F)c2)C(c2ccc(O)cc2)C(C(=O)Nc2cccc(C(F)(F)F)c2)=C(C)N1	71.9	53.5	28.1	63.9	> 100	86.6	38.7	44.3	47.7											
CCOC(=O)C1=C(Nc2ccccc2)OC/C1=N\NC(=O)Cc1ccccc1	> 50	> 50	> 50	> 50	> 50	> 50	> 50	> 50	> 50											
